Where two headings read alike, the source gives them in different places. No end group written: not given here.
Legend:
[1] = tested on: adipocytes (mature 3T3-L1); experiment: FACS targeting ability of FITC-labeled peptides in adipocytes; assay type: cell-based; conditions: 37° C.; for targeting ability (FACS): adipocytes (mature 3T3-L1), 1 μM FITC-labeled peptide, 30 minutes
Experimental: To conduct cell experiments in adipocytes, preadipocytes were differentiated into adipocytes. Specifically, 3T3-L1 preadipocytes were first seeded in a well plate of a size suitable for the experimental purpose, and then cultured to 80% to 90% confluence. Thereafter, the cells were treated with an adipocyte differentiation induction reagent (insulin 10 μg/ml, dexamethasone 0.4 μg/ml, 3-isobutyl-1-methylxanthine 111 μg/ml) for three days. After washing the adipocyte differentiation induction reagent with phosphate-buffered saline (PBS), the cells were treated with Dulbecco's modified eagle medium (DMEM) containing insulin (10 μg/ml) every two days, and differentiation was induced for up to 14 days to generate adipocytes. Thereafter, on day 14 of the adipocyte differentiation induction, the cells were fixed with 4% paraformaldehyde and then treated with the Oil red O staining solution for two hours. In addition, the staining solution accumulated inside the cells was eluted with isopropanol, and a microplate reader was used to verify whether fatty acids were accumulated inside the adipocytes at a wavelength of 510 nm to finally confirm the differentiation.
The targeting effect of the above-described candidate peptides was quantitatively verified in actual adipocytes and preadipocytes. Specifically, differentiated 3T3-L1 preadipocytes were treated at 37° C. for 30 minutes with 1 μM of the final FITC-labeled candidate peptides dissolved in DMEM.
After washing with PBS, cells were detached from the well plate using a trypsin-ethlyenediaminetetraacetic acid (EDTA) (0.5%) solution and centrifuged at 1100 rpm for three minutes to obtain sedimented cells. […]
The finally selected candidate peptide (adipose tissue homing peptide: AHP) (SEQ ID NO: 14: KGRRAKD) was quantitatively compared with another adipose tissue targeting sequence (adipose targeting sequence: ATS) (SEQ ID NO: 22: KGGRAKD) in adipocytes. […]

[2] = tested on: adipocytes (mature 3T3-L1); experiment: Confocal fluorescence imaging of peptide binding to adipocyte outer membrane; assay type: cell-based; conditions: 1 μM FITC-labeled peptide, 30 minutes, 37° C.
Experimental: The binding of the candidate peptides to the adipocyte outer membrane was confirmed through fluorescence imaging. Specifically, differentiated 3T3-L1 preadipocytes were treated with 1 μM of the finally selected FITC-labeled candidate peptides in Table 2 dissolved in DMEM for 30 minutes at 37° C. After washing with PBS, cell nuclei were stained using 4′6,-diamidino-2-phenylindole (DAPI). Fluorescence images were taken using a confocal microscope (green fluorescence (FITC)=488 nm, blue fluorescence (DAPI)=405 nm).

[3] = Pharmacokinetics: blood residual concentration after intraperitoneal injection; assay type: in vivo, C57BL/6J; conditions: 13.5 mg/kg intraperitoneal
Experimental: The pharmacokinetic indices were calculated by measuring the blood residual concentrations of GL derivatives. Specifically, GL and GL-PEG-AHP were injected intraperitoneally in an amount of 13.5 mg/kg into animals (C57BL/6J, 6 weeks old, 5 per cage). At each time point (0, 20, 30, 120, 240, and 480 minutes) following the intraperitoneal injection, the animals were sacrificed, and 300 μl of blood samples were obtained through the abdominal vein. The obtained blood samples were placed in EDTA tubes and centrifuged at 824×g for 30 minutes at 4° C. 50 μl of the supernatant was mixed with 100 μl of methanol, and the resulting mixture was vortexed for 10 minutes. Thereafter, centrifugation was performed again at 10,000×g for 10 minutes. 100 μl of the supernatant was mixed with 900 μl of the mobile phase, and the resulting mixture was filtered through a 0.45 μm syringe filter, and HPLC was performed (HPLC column: C8 column; mobile phase=methanol:acetonitrile:water:acetic acid=55:23.7:19.2:0.68; flow rate: 1 ml/min; injection volume: 20 μl) to measure the blood residual concentration of the drug over time. Detection was performed through UV at 245 nm.

ABCA1 = ABCA1 cell membrane expression in adipocytes treated with LXR inhibitor GSK2033; assay type: cell-based; conditions: adipocytes treated with GL derivatives
Experimental: It was confirmed through fluorescence images whether the cell membrane expression level of ABCA1 by GL derivatives is reduced in adipocytes by GSK2033, an LXR inhibitor. […] Specifically, 4×10^4 adipocytes were seeded in a 24-well plate and treated with each group (control, GL, PEG, AHP, GL-PEG, and GL-PEG-AHP) for 24 hours on day 14 of adipocyte differentiation. The cells were fixed using 4% PFA. After washing with PBS, the cells were incubated with 10% goat serum and 0.02% Tween-20 for 30 minutes at room temperature. The cells were treated with the ABCA1 antibody (Host: rabbit, 1:300) in PBST at room temperature for two hours. After washing with PBST, the cells were treated with an FITC-labeled secondary antibody (goat-anti-rabbit, 1:500) at room temperature for one hour. After washing with PBS, the cells were treated with DAPI for one minute at room temperature, and then fluorescence images were obtained.

[4] = tested on: obese adipocytes (FFA-treated mature 3T3-L1 cells); experiment: Anti-hypertrophic effect in obese adipocytes (Oil Red O); assay type: cell-based
Experimental: To induce obesity in adipocytes at the cell experiment level, cells were treated with saturated fatty acids, and the process of inducing obese adipocytes and performing the experiment at the cell experiment level are shown in FIG. 16. Specifically, a saturated fatty acid (free fatty-acid) (FFA, palmitic acid) was dissolved in a 2% w/v bovine serum albumin (BSA) and 0.5% ethanol DMEM solution to a concentration of 500 μM. After treating with FFA for three days, the cells were washed, subjected to an Oil Red O staining solution process, and then the amount of accumulated fatty acids was measured through the absorbance at 510 nm. The results are shown in FIG. 17, and it was confirmed even through qualitative observation that the size of single fat droplets was very different. […]
The anti-hypertrophy effect of GL derivatives in obesity-induced adipocytes according to the concentration was confirmed at the cell experiment level. […] The amount of fatty acids accumulated inside the cells was measured through the Oil Red O staining process on day 18 of differentiation. […]
It was confirmed whether the anti-hypertrophic effect according to the expected mechanism of GL derivatives differed depending on the fatty acid treatment method. […] On day 18 of differentiation, the amount of fatty acids accumulated inside the cells was measured through the Oil Red O staining process.

[5] = biological target: T1, prohibitin (PHB) on the surface of adipocytes (mature 3T3-L1) (UniProt P67778 2-272, limits assumed); experiment: FACS of FITC-labeled peptide on mature 3T3-L1 adipocytes, 30 min at 37 °C
T1 construct: whole, on cells
T1 sequence (looked up): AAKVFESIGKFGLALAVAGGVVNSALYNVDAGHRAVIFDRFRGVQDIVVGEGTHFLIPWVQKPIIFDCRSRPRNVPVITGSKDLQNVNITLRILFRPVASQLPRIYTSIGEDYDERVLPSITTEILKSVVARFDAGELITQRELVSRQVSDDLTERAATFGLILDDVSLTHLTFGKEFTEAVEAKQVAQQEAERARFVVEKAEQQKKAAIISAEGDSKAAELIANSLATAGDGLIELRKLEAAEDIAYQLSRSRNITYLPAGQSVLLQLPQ

For “7mer 001: adipose tissue homing peptide, SEQ ID NO: 14: KGRRAKD; conjugated form SEQ ID NO: 1: GKGRRAKDC”, the “adipocyte targeting effect compared with ATS (FACS)” value ([1]; 1 μM FITC-labeled AHP and ATS, 30 min) was “not inferior in efficacy to ATS”, the “targeting ability (FACS)” value [1] was “most effective targeting ability” and the “adipocyte targeting ability (confocal fluorescence images)” value [2] was “best adipocyte targeting ability”.

In the case of `CC1(C)[C@@H](O[C@H]2O[C@H](C(=O)O)[C@@H](O)[C@H](O)[C@H]2O[C@@H]2O[C@H](C(=O)O)[C@@H](O)[C@H](O)[C@H]2O)CC[C@]2(C)[C@H]3C(=O)C=C4[C@@H]5C[C@@](C)(C(=O)O)CC[C@]5(C)CC[C@@]4(C)[C@]3(C)CC[C@@H]12` [GL, glycyrrhizin], the AUC(0-t) ([3]; C57BL/6J, mouse, plasma, ip) is reported as 114 µg·h/mL, the half-life ([3]; C57BL/6J, mouse, plasma, ip) is reported as 3.3 h and the Cmax ([3]; C57BL/6J, mouse, plasma, ip, read-out: Cmax) is reported as 43800 ng/mL. The Tmax ([3]; C57BL/6J, mouse, plasma, ip, read-out: Tmax (converted)) was 0.333 h.

With `Cc1cc(C)c(S(=O)(=O)N(Cc2ccc(-c3cccc(S(C)(=O)=O)c3)cc2)Cc2ccc(C(F)(F)F)o2)c(C)c1` [GSK2033] the “expression of ABCA1 in GL derivative groups by GSK2033 treatment” value (ABCA1) was “suppressed”.

With “GL-PEG-AHP: adipose tissue-targeting glycyrrhizin conjugate: GL amide-bonded to thiol-PEG-amine, disulfide-bonded to AHP (SEQ ID NO: 1: GKGRRAKDC) (also: glycyrrhizin-PEG conjugate, Cys9 disulfide-linked to thiol-PEG-GL)” the “difference in drug efficacy between pretreatment and co-treatment” value ([4]; anti-hypertrophic effect, Oil Red O, day 18 of differentiation) was “greatest efficacy difference”, the anti-hypertrophic effect ([4]; drug pretreatment, 25, 50, 100, 200, 400 μM, ranking between groups) was “most effective anti-hypertrophic effect” and the Cmax [3] was 75200 ng/mL. The T1/2 [3] was 3.45 h and the Tmax [3] was 0.333 h.

With “GRRAK: 5mer candidate peptide, SEQ ID NO: 6” the “targeting ability (FACS)” value [1] was “did not have a significant targeting ability”.

B1: 5mer candidate peptide GRRAK, FITC-labeled (peptide)
peptide: GRRAK
modifications: also: FITC-labeled, position not given here
notes: Described as a 'working region'; also called working region GRRAK
B1: no binding (tested: 1 µM) [5].

Reference: patent US20260184750A1, “CONJUGATE COMPRISING PEPTIDE OF NOVEL SEQUENCE AND GLYCYRRHIZIN, AND PHARMACEUTICAL COMPOSITION FOR PREVENTING OR TREATING OBESITY COMPRISING SAME” (IUCF-HYU (INDUSTRY-UNIVERSITY COOPERATION FOUNDATION …, priority 2022, published 2026)
